Reference: US8927715B2, “Inhibitors of 11β-hydroxysteroid dehydrogenase type 1” (Vitae Pharmaceuticals, Inc., priority 2006, dated 2015)

molecular target: human 11β-HSD1 (Homo sapiens, UniProt P28845); assay: Inhibition of a microsomal preparation of 11β-HSD1, SPA (Biological Test Example 2); assay type: biochemical; parameters: expressed in transfected cells; host or cells: CHO cells (microsomes); settings: read-out: Biological Test Example 2 (IC50 class)
Experimental: All reactions are carried out at room temperature in 96 well clear flexible PET Microbeta plates (PerkinElmer). […] After a 10 minute pre-incubation, 50 μL of enzyme solution containing microsomes isolated from CHO cells overexpressing human 11β-HSD1 (10-20 μg/ml of total protein) is added, and the plates are then incubated for 90 minutes at room temperature. The reaction is stopped by adding 50 μl of the SPA beads suspension containing […] 18β-glycyrrhetinic acid, 5 mg/ml protein A coated YSi SPA beads (GE Healthcare) and 3.3 μg/ml of anti-cortisol antibody (East Coast Biologics) in Superblock buffer (Bio-Rad). The plates are then shaken for 120 minutes at room temperature, and the SPA signal corresponding to [^3H]cortisol is measured on a Microbeta plate reader.

Chain of human 11β-HSD1 (P28845 whole entry): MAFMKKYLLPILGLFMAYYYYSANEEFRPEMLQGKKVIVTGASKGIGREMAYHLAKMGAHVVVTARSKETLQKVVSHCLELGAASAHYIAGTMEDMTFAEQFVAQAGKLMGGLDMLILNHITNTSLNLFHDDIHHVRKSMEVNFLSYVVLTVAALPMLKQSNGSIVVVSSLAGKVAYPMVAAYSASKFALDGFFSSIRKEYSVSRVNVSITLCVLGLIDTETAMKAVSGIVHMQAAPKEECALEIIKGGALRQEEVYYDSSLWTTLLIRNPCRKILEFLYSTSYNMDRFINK

IC50 [nM]	SMILES
< 50	NCC1CC2(CCN(C(=O)OC3C4CC5CC(C4)CC3C5)CC2)c2c(Br)cccc21 (racemic) [Example 124, (±)-2-Adamantyl 3-(aminomethyl)-7-bromo-2,3-dihydrospiro[indene-1,4′-piperidine]-1′-carboxylate]
< 50	CN1C(=S)c2ccccc2C12CCN(C(=O)NC1C3CC4CC(C3)CC1C4)CC2 (centres unmarked) [103, Step 1 Product]
< 50	CCOC(=O)CCN1Cc2ccccc2C2(CCN(C(=O)OC3C4CC5CC(C4)CC3C5)CC2)C1 (centres unmarked) [Example 32]
< 50	CS(=O)(=O)N1Cc2ccccc2C2(CCN(C(=O)NC3C4CC5CC(C4)CC3C5)CC2)C1 (centres unmarked) [Example 34, N-(2-Adamantyl)-2-(methylsulfonyl)-2,3-dihydro-1H-spiro[isoquinoline-4,4′-piperidine]-1′-carboxamide]
< 50	CNC(=O)N1Cc2ccccc2C2(CCN(C(=O)NC3C4CC5CC(C4)CC3C5)CC2)C1 (centres unmarked) [Example 35, N1′-(2-Adamantyl)-N2-methyl-1H-spiro[isoquinoline-4,4′-piperidine]-1′,2(3H)-dicarboxamide]
< 50	CC(C)(C)OC(=O)N1Cc2ccccc2C2(CCN(C(=O)OC3C4CC5CC(C4)CC3C5)CC2)C1 (centres unmarked) [Example 37, 2-Tert-butyl 1′-(2-adamantyl) 1H-spiro[isoquinoline-4,4′-piperidine]-1′,2(3H)-dicarboxylate]
< 50	CS(=O)(=O)N1Cc2ccccc2C2(CCN(C(=O)OC3C4CC5CC(C4)CC3C5)CC2)C1 (centres unmarked) [Example 39, 2-Adamantyl 2-(methylsulfonyl)-2,3-dihydro-1H-spiro[isoquinoline-4,4′-piperidine]-1′-carboxylate]
< 50	N#Cc1ccc(N2Cc3ccccc3C3(CCN(C(=O)OC4C5CC6CC(C5)CC4C6)CC3)C2)nc1 (centres unmarked) [Example 41, 2-Adamantyl 2-(5-cyanopyridin-2-yl)-2,3-dihydro-1H-spiro[isoquinoline-4,4′-piperidine]-1′-carboxylate]
< 50	CC(C(=O)O)C1CC2(CCN(C(=O)NC3C4CC5CC(C4)CC3C5)CC2)c2c(Br)cccc21 (centres unmarked) [Example 66, 2-(7-Bromo-1′-((2-adamantyl)carbamoyl)-2,3-dihydrospiro[indene-1,4′-piperidine]-3-yl)propanoic acid]
50 to 1000	COc1cc(CNC(=O)C23CC4CC(C2)C(OC(=O)N2CCC5(CC2)CC(CC(=O)O)c2ccccc25)C(C4)C3)cc(OC)c1 (centres unmarked) [Example 72, 2-(1′-((1-(3,5-Dimethoxybenzylcarbamoyl)-4-adamantyloxy)carbonyl)-2,3-dihydrospiro[indene-1,4′-piperidine]-3-yl)acetic acid]
< 50	NC(=O)C12CC3CC(C1)C(OC(=O)N1CCC4(CC1)CC(CC(=O)O)c1ccccc14)C(C3)C2 (centres unmarked) [Example 73, 2-(1′-((1-Carbamoyl-4adamantyloxy)carbonyl)-2,3-dihydrospiro[indene-1,4′-piperidine]-3-yl)acetic acid]
< 50	COC(=O)CC1CCC2(CC1)CCN(C(=O)OC1C3CC4CC(C3)CC1C4)CC2 (centres unmarked) [Example 79, (2-Adamantyl) 9-(2-methoxy-2-oxoethyl)-3-azaspiro[5.5]undecane-3-carboxylate]
50 to 1000	O=C(O)CC1CCC2(CC1)CCN(C(=O)OC1C3CC4CC(C3)CC1C4)CC2 (centres unmarked) [Example 80, 2-(3-((2-Adamantyl)oxycarbonyl)-3-azaspiro[5.5]undecan-9-yl)acetic acid]
< 50	COC(=O)CC1CCC2(CC1)CCN(C(=O)NC1C3CC4CC(C3)CC1C4)CC2 (centres unmarked) [Example 81, Methyl 2-(3-((2-adamantyl)carbamoyl)-3-azaspiro[5.5]undecan-9-yl)acetate]
50 to 1000	O=C(O)CC1CCC2(CC1)CCN(C(=O)NC1C3CC4CC(C3)CC1C4)CC2 (centres unmarked) [Example 82, 2-(3-((2-Adamantyl)carbamoyl)-3-azaspiro[5.5]undecan-9-yl)acetic acid]
< 50	O=C(NC1C2CC3CC(C2)CC1C3)N1CCC2(CC1)OCc1ccccc12 (centres unmarked) [Example 83, N-(2-Adamantyl)-3H-spiro[isobenzofuran-1,4′-piperidine]-1′-carboxamide]
< 50	CN1Cc2ccccc2C12CCN(C(=O)NC1C3CC4CC(C3)CC1C4)CC2 (centres unmarked) [Example 86, N-(2-Adamantyl)-2-methylspiro[isoindoline-1,4′-piperidine]-1′-carboxamide]
< 50	CN1Cc2cccc(Cl)c2C12CCN(C(=O)NC1C3CC4CC(C3)CC1C4)CC2 (centres unmarked) [Example 88, 7-Chloro-N-(2-adamantyl)-2-methylspiro[isoindoline-1,4′-piperidine]-1′-carboxamide]
< 50	O=C(O)CCC(=O)N1CC2(CCN(C(=O)NC3C4CC5CC(C4)CC3C5)CC2)c2ccccc21 (centres unmarked) [Example 90, 4-(1′-(2-Adamantylcarbamoyl)spiro[indoline-3,4′-piperidine]-1-yl)-4-oxobutanoic acid]
< 50	O=C(O)CCC(=O)N1Cc2ccccc2C2(CCN(C(=O)NC3C4CC5CC(C4)CC3C5)CC2)C1 (centres unmarked) [Example 92, 4-(1′-(2-Adamantylcarbamoyl)-1H-spiro[isoquinoline-4,4′-piperidine]-2(3H)-yl)-4-oxobutanoic acid]

More lines, now with the values behind:

SMILES	IC50 [nM]
CC(C)(CO)C1CC2(CCN(C(=O)NC3C4CC5CC(C4)CC3C5)CC2)c2c(Br)cccc21 (racemic) [Example 123, (±)-7-Bromo-N-(2-adamantyl)-3-(1-hydroxy-2-methylpropan-2-yl)-2,3-dihydrospiro[indene-1,4′-piperidine]-1′-carboxamide]	< 50
CN(C)CC1CC2(CCN(C(=O)OC3C4CC5CC(C4)CC3C5)CC2)c2c(Br)cccc21 (racemic) [Example 125, (±)-2-Adamantyl 7-bromo-3-((dimethylamino)methyl)-2,3-dihydro spiro[indene-1,4′-piperidine]-1′-carboxylate]	< 50
O=C(NC1C2CC3CC(C2)CC1C3)N1CCC2(CC1)CC(CCN1CCOCC1)c1cccc(Br)c12 (racemic) [Example 126, (±)-7-Bromo-N-(2-adamantyl)-3-(2-morpholinoethyl)-2,3-dihydrospiro[indene-1,4′-piperidine]-1′-carboxamide]	< 50
NC(=O)CC1CC2(CCN(C(=O)NC3C4CC5CC(C4)CC3C5)CC2)c2c(Br)cccc21 (racemic) [Example 131, (±)-3-(2-amino-2-oxoethyl)-7-bromo-N-(2-adamantyl)-2,3-dihydrospiro[indene-1,4′-piperidine]-1′-carboxamide]	< 50
O=C(NC1C2CC3CC(C2)CC1C3)N1CCCC2(Cc3ccccc3C2=O)C1 (centres unmarked) [27, Step 1 Product]	< 50
O=C(NC1C2CC3CC(C2)CC1C3)N1CCCC2(Cc3ccccc3C2O)C1 (centres unmarked) [27, Step 2 Product]	< 50
O=C(NC1C2CC3CC(C2)CC1C3)N1CCC2(CC1)NC(=S)c1ccccc12 (centres unmarked) [87, Step 1 Product]	< 50
O=C(NC1C2CC3CC(C2)CC1C3)N1CCC2(CCc3ccccc32)CC1 (centres unmarked) [Example 28, N-(2-Adamantyl)-2,3-dihydrospiro[indene-1,4′-piperidine]-1′-carboxamide]	< 50
CCOC(=O)N1Cc2ccccc2C2(CCN(C(=O)NC3C4CC5CC(C4)CC3C5)CC2)C1 (centres unmarked) [Example 36, Ethyl 1′-((2-adamantyl)carbamoyl)-1H-spiro[isoquinoline-4,4′-piperidine]-2(3H)-carboxylate]	< 50
O=C(OC1C2CC3CC(C2)CC1C3)N1CCC2(CC1)CNCc1ccccc12 (centres unmarked) [Example 38, 2-Adamantyl 2,3-dihydro-1H-spiro[isoquinoline-4,4′-piperidine]-1′-carboxylate]	< 50
CC(C)S(=O)(=O)N1Cc2ccccc2C2(CCN(C(=O)OC3C4CC5CC(C4)CC3C5)CC2)C1 (centres unmarked) [Example 40, 2-Adamantyl 2-(isopropylsulfonyl)-2,3-dihydro-1H-spiro[isoquinoline-4,4′-piperidine]-1′-carboxylate]	< 50
O=C(O)CC1CC2(CCN(C(=O)NC3C4CC5CC3CC(F)(C5)C4)CC2)c2c(Br)cccc21 (centres unmarked) [Example 74]	< 50
COc1ccc2c(c1)CCNC21CCN(C(=O)NC2C3CC4CC(C3)CC2C4)CC1 (centres unmarked) [Example 77, N-(2-Adamantyl)-6-methoxy-3,4-dihydro-2H-spiro[isoquinoline-1,4′-piperidine]-1′-carboxamide]	< 50
O=C(NC1C2CC3CC(C2)CC1C3)N1CCC2(CCCc3ccccc32)CC1 (centres unmarked) [Example 78, N-(2-Adamantyl)-3,4-dihydro-2H-spiro[naphthalene-1,4′-piperidine]-1′-carboxamide]	< 50
CC(C)(C)OC(=O)N1CC2(CCN(C(=O)OC3C4CC5CC3CC(C(N)=O)(C5)C4)CC2)c2ccccc21 (stereo not drawn) [Example 85, 1-Tert-butyl 1′-(trans-1-carbamoyl-4-adamantyl)spiro[indoline-3,4′-piperidine]-1,1′-dicarboxylate]	< 50
O=C(NC1C2CC3CC(C2)CC1C3)N1CCC2(CC1)NCc1ccccc12 (centres unmarked) [Example 87, N-(2-Adamantyl)spiro[isoindoline-1,4′-piperidine]-1′-carboxamide]	< 50
O=C(O)CC1CC2(CCN(C(=O)OC3C4CC5CC3CC(C(=O)NCc3ccccc3)(C5)C4)CC2)c2ccccc21 (centres unmarked) [Example 89, 2-(1′-((1-(Benzylcarbamoyl)-4-adamantyloxy)carbonyl)-2,3-dihydrospiro[indene-1,4′-piperidine]-3-yl)acetic acid]	50 to 1000
O=C(O)/C=C/C(=O)N1Cc2ccccc2C2(CCN(C(=O)NC3C4CC5CC(C4)CC3C5)CC2)C1 (centres unmarked) [Example 91, (E)-4-(1′-(2-Adamantylcarbamoyl)-1H-spiro[isoquinoline-4,4′-piperidine]-2(3H)-yl)-4-oxobut-2-enoic acid]	< 50
